Patent US10981932B2, “Macrocyclic indole derivatives” (Bayer Aktiengesellschaft, priority 2016, dated 2021)
Where “and” joins values, the source holds several entries; their conditions need not be identical. Equal values may be shown once. Where a name gives a salt, the structure may show the parent alone. Read-outs that look alike come from different tables or passages of the source.

Tests used:
SUDHL10 [1] = assay: Induction of cytotoxicity (CellTiter-Glo, 5 h), SUDHL10; settings: read-out: Cytotox SUDHL10 [M] (median); SUDHL10 cells, cytotoxicity induction, CellTiter-Glo, 5 h incubation, median
MV-4-11 = assay: Anti-proliferative effect (CellTiter-Glo, 72 h), MV-4-11; assay type: cell-based; settings: MV-4-11 cells, median, read-out: IC50 antiproliferation assay MV-4-11 [M] (median)
Method in brief: (§1)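 After seeding, one plate is read right away by CellTiter-Glo luminescence to fix time zero. The treated plates stay at 37 °C in humidified air for 72 h and are then measured with the same reagent and 10 min incubation.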

SUDHL10 [2] = assay: Induction of caspase-3/7 activity (Caspase-Glo 3/7), SUDHL10; assay type: cell-based; settings: caspase-3/7 induction, SUDHL10 cells, 3 h treatment, median
Method in brief: (§2)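 Apoptosis induction measured as caspase-3/7 activity (Caspase-Glo 3/7) in DLBCL lines after 3 h treatment at 37 °C; EC50 derived relative to the reference compound's maximal induction, with C0 fixed at 1.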

A2780 = assay: Anti-proliferative effect (CellTiter-Glo, 72 h), A2780; assay type: cell-based; settings: A2780 cells, median, read-out: IC50 antiproliferation assay A2780 [M] (median)
Method in brief: as §1

SUDHL5 [3] = assay: Induction of caspase-3/7 activity (Caspase-Glo 3/7), SUDHL5; assay type: cell-based; settings: caspase-3/7 induction, SUDHL5 cells, 3 h treatment; median
Method in brief: as §2

SUDHL5 [4] = assay: Induction of cytotoxicity (CellTiter-Glo, 5 h), SUDHL5; settings: read-out: Cytotox SUDHL5 [M] (median); SUDHL5 cells, cytotoxicity induction, CellTiter-Glo, 5 h incubation, median
MCL-1 = MCL-1 (Homo sapiens, UniProt Q07820); assay: Protein-protein interaction assay MCL-1/Noxa BH3 peptide (MCL-1 assay), TR-FRET; assay type: binding; settings: MBP-MCL-1 / Noxa BH3-derived peptide, median
Method in brief: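 Inhibition values were normalized between DMSO controls with all reagents and controls lacking MCL-1. The binding competition used 1 nM MBP-MCL-1 in pH 7 Tris buffer containing 50 mM KF and 100 mM NaCl, with a 10 min compound preincubation at 22 °C.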

SUDHL5 [5] = assay: Anti-proliferative effect (CellTiter-Glo, 72 h), SUDHL5; assay type: cell-based; settings: SUDHL5 cells, antiproliferation, 72 h incubation, median, read-out: Antiproli SUDHL5 [M] (median)
Method in brief: as §1

Sequence of MCL-1 (Q07820 whole entry): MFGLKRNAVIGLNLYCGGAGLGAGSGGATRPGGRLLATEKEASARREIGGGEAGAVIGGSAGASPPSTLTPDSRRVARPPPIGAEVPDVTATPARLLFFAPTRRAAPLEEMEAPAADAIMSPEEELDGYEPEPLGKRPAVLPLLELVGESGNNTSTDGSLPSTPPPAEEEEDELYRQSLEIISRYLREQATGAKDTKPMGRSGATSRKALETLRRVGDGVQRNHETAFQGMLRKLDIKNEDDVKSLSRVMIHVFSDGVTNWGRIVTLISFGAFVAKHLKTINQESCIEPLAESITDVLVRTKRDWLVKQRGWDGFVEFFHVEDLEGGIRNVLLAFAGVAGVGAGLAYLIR

| SMILES | IC50 (MV-4-11) | EC50 (SUDHL10 [2]) | IC50 (A2780) | EC50 (SUDHL5 [3]) | IC50 (MCL-1) | IC50 (SUDHL5 [5]) | IC50 (MV-4-11; Homo sapiens, MV4-11, 72 h) | EC50 (SUDHL10 [2]; Homo sapiens, SU-DHL10, 3 h) | IC50 (SUDHL5 [5]; Homo sapiens, SU-DHL-5, 72 h) | IC50 (A2780; Homo sapiens, A2780, 72 h) | IC50 (SUDHL10 [1]) | IC50 (SUDHL5 [4]) |
| --- | --- | --- | --- | --- | --- | --- | --- | --- | --- | --- | --- | --- |
| Cc1ccc2c(C(C)CCOc3cccc4ccccc34)c(C(=O)O)n3c2c1-c1c(C)nn(C)c1COCCCC3 (single isomer, unassigned) [Example 260, 1,3,4-trimethyl-7-[4-(naphthalen-1-yloxy)butan-2-yl]-1,10,11,12,13,15-hexahydropyrazolo[4′3′:9,10][1,6]oxazacycloundecino[8,7,6-hi]indole-8-carboxylic Acid] | – | 11.3 µM | 2.2e-05 M | 10.2 µM | 0.00875 µM | 3.61e-06 M | 4.35e-06 M | – | – | – | 1.18e-05 M | 6.3e-06 M |
| CCc1nn(C)c2c1-c1c(C)ccc3c(CCCOc4cccc5cc(F)ccc45)c(C(=O)O)n(c13)CCCCOC2 (single isomer, unassigned) [Example 268, (−)-3-ethyl-7-{3-[(6-fluoronaphthalen-1-yl)oxy]propyl}-1,4-dimethyl-1,10,11,12,13,15-hexahydropyrazolo[4′,3′:9,10][1,6]oxazacycloundecino[8,7,6-hi]indole-8-carboxylic Acid] | 7.46e-06 M | > 33 µM | 2.29e-05 M | > 33 µM | 0.0407 µM | 7.41e-06 M | – | – | – | – | > 3.3e-05 M | > 3.3e-05 M |
| CCc1nn(C)c2c1-c1c(C)ccc3c(C(C)CCOc4cccc5ccccc45)c(C(=O)O)n(c13)CCCCOC2 (single isomer, unassigned) [Example 273, 3-ethyl-1,4-dimethyl-7-[4-(naphthalen-1-yloxy)butan-2-yl]-1,10,11,12,13,15-hexahydropyrazolo[4′,3′:9,10][1,6]oxazacycloundecino[8,7,6-hi]indole-8-carboxylic Acid] | 4.53e-06 M | 15.9 µM | 4.18e-06 M | 5.37 µM | 0.00589 µM | 3.74e-06 M | – | – | – | – | 1.62e-05 M | 4.58e-06 M |
| CCc1nn(C)c2c1-c1c(C)ccc3c(C(C)CCOc4cccc5ccccc45)c(C(=O)O)n(c13)CCCCOC2 (single isomer, unassigned) [Example 274, 3-ethyl-1,4-dimethyl-7-[4-(naphthalen-1-yloxy)butan-2-yl]-1,10,11,12,13,15-hexahydropyrazolo[4′,3′:9,10][1,6]oxazacycloundecino[8,7,6-hi]indole-8-carboxylic Acid] | 8.02e-06 M | 31.7 µM | 1.17e-05 M | > 33 µM | 1.56 µM | 3.93e-06 M | – | – | – | – | > 3.3e-05 M | > 3.3e-05 M |
| CCc1nn(C)c2c1-c1c(C)ccc3c(C(C)CCOc4cccc5ccccc45)c(C(=O)O)n(c13)CCCCOC2 (single isomer, unassigned) [Example 275, 3-ethyl-1,4-dimethyl-7-[4-(naphthalen-1-yloxy)butan-2-yl]-1,10,11,12,13,15-hexahydropyrazolo[4′,3′:9,10][1,6]oxazacycloundecino[8,7,6-hi]indole-8-carboxylic Acid] | 4.52e-06 M | 21.6 µM | 7.02e-06 M | > 33 µM | 3.97 µM | 3.33e-06 M | – | – | – | – | 2.83e-05 M | > 3.3e-05 M |
| Cc1ccc2c(C(C)CCOc3cccc4cc(F)ccc34)c(C(=O)O)n3c2c1-c1c(nn(C)c1C)COCCCC3 (single isomer, unassigned) [Example 278, 7-{4-[(6-fluoronaphthalen-1-yl)oxy]butan-2-yl}2,3,4-trimethyl-2,10,11,12,13,15-hexahydropyrazolo[4′,3′:9,10][1,6]oxazacycloundecino[8,7,6-hi]indole-8-carboxylic Acid] | 1.49e-05 M | > 33 µM | 1.26e-05 M | 26.3 µM | 0.142 µM | 1.19e-05 M | – | – | – | – | > 3.3e-05 M | 2.48e-05 M |
| Cc1ccc2c(C(C)CCOc3cccc4cc(F)ccc34)c(C(=O)O)n3c2c1-c1c(nn(C)c1C)COCCCC3 (single isomer, unassigned) [Example 279, 7-{4-[(6-fluoronaphthalen-1-yl)oxy]butan-2-yl}-2,3,4-trimethyl-2,10,11,12,13,15-hexahydropyrazolo[4′,3′:9,10][1,6]oxazacycloundecino[8,7,6-hi]indole-8-carboxylic Acid] | 1.57e-05 M | 26.6 µM | 7.5e-06 M | 25.5 µM | 1.6 µM | 7.56e-06 M | – | – | – | – | 2.94e-05 M | 2.05e-05 M |
| CCc1c2c(nn1C)COCCCCn1c(C(=O)O)c(CCCOc3cccc4cc(F)ccc34)c3cccc-2c31 (single isomer, unassigned) [Example 283] | 1.46e-05 M | > 33 µM | 1.5e-05 M | 30.7 µM and > 33 µM | 0.0444 µM | 8.33e-06 M | – | – | – | – | 3.05e-05 M | 2.17e-05 M |
| Cc1c2c(nn1CCN1CCOCC1)COCCCCn1c(C(=O)O)c(CCCOc3cccc4cc(F)ccc34)c3cccc-2c31 (single isomer, unassigned) [Example 286, (−)-7-{3-[(6-fluoronaphthalen-1-yl)oxy]propyl}-3-methy-2-[2-(morpholin-4-yl)ethyl]-2,10,11,12,13,15-hexahydropyrazolo[4′,3′:9,10][1,6]oxazacycloundecino[8,7,6-hi]indole-8-carboxylic acid-N-ethylethanamine Salt] | 1.73e-05 M | > 33 µM | 1.26e-05 M | 11.8 µM | 0.0272 µM | 5.11e-06 M | – | – | – | – | > 3.3e-05 M | 1.2e-05 M |

The next lines start with results.

| IC50 (MV-4-11) | EC50 (SUDHL10 [2]) | IC50 (A2780) | EC50 (SUDHL5 [3]) | IC50 (MCL-1) | IC50 (SUDHL5 [5]) | IC50 (MV-4-11; Homo sapiens, MV4-11, 72 h) | EC50 (SUDHL10 [2]; Homo sapiens, SU-DHL10, 3 h) | IC50 (SUDHL5 [5]; Homo sapiens, SU-DHL-5, 72 h) | IC50 (A2780; Homo sapiens, A2780, 72 h) | SMILES | IC50 (SUDHL10 [1]) | IC50 (SUDHL5 [4]) |
| --- | --- | --- | --- | --- | --- | --- | --- | --- | --- | --- | --- | --- |
| 1.31e-05 M | > 33 µM | 2.48e-05 M | > 33 µM | 0.067 µM | 1.39e-05 M | – | – | – | – | O=C(O)c1c(CCCOc2cccc3ccccc23)c2cccc3c2n1CCCCOCc1nn2c(c1-3)CCCC2 (single isomer, unassigned) [Example 255, 1-[3-(naphthalen-1-yloxy)propyl]-4,5,6,7,12,13,14,15-octahydro-9H-pyrido[1″,2″:1′,5′]pyrazolo[4′,3′:9,10][1,6]oxazacycloundecino[8,7,6-hi]indole-2-carboxylic Acid] | 3.28e-05 M | > 3.3e-05 M |
| – | – | 7.15e-06 M | > 33 µM | 0.983 µM | – | 4.89e-06 M | 23.8 µM | 2.76e-06 M | – | CCc1nn(C)c2c1-c1c(C)ccc3c(C(C)CCOc4cccc5ccccc45)c(C(=O)O)n(c13)CCCCOC2 (single isomer, unassigned) [Example 272, 3-ethyl-1,4-dimethyl-7-[4-(naphthalen-1-yloxy)butan-2-yl]-1,10,11,12,13,15-hexahydropyrazolo[4′,3′:9,10][1,6]oxazacycloundecino[8,7,6-hi]indole-8-carboxylic Acid] | 2.5e-05 M | > 3.3e-05 M |
| – | 1.8 µM | – | 1.4 µM | 0.0013 µM | 2.05e-06 M | 8.78e-06 M | – | – | 1.5e-05 M | Cc1ccc2c(C(C)CCOc3cccc4cc(F)ccc34)c(C(=O)O)n3c2c1-c1c(nn(C)c1C)COCCCC3 (single isomer, unassigned) [Example 277, 7-{4-[(6-fluoronaphthalen-1-yl)oxy]butan-2-yl}-2,3,4-trimethyl-2,10,11,12,13,15-hexahydropyrazolo[4′3′:9,10][1,6]oxazacycloundecino[8,7,6-hi]indole-8-carboxylic Acid] | 2.28e-06 M | 2.1e-06 M |
| 1.11e-05 M | 32.4 µM | 8.02e-06 M | > 33 µM | 0.194 µM | 1.18e-05 M | – | – | – | – | Cc1ccc2c(C(C)CCOc3cccc4cc(F)ccc34)c(C(=O)O)n3c2c1-c1c(nn(C)c1C)COCCCC3 (single isomer, unassigned) [Example 280, 7-{4-[(6-fluoronaphthalen-1-yl)oxy]butan-2-yl}-2,3,4-trimethyl-2,10,11,12,13,15-hexahydropyrazolo[4′3′:9,10][1,6]oxazacycloundecino[8,7,6-hi]indole-carboxylic Acid] | 3.07e-05 M | > 3.3e-05 M |
